Patent publication US6849438B1, “Isolated and purified human soluble guanylyl cyclase α1/β1 (hsgcα1/β1)” (Vasopharm Biotech GmbH, priority 1998, dated 2005)

Molecular target: T1, recombinant human sGC (rhsGCα1/rhsGCβ1) in intact Sf9 cells (Homo sapiens, UniProt Q02108+Q02153)
T1 construct: Thus, the complete hsGCα1 cDNA is under the control of the polyhedrin promotor (PHP); Thus, the complete hsGCβ1 cDNA is under the control of the polyhedrin promotor (PHP); expressed in transfected cells; host or cells: Sf9 insect cells coinfected with recombinant baculoviruses (pVL1393-derived)
T1 sequence (Q02108 1-690): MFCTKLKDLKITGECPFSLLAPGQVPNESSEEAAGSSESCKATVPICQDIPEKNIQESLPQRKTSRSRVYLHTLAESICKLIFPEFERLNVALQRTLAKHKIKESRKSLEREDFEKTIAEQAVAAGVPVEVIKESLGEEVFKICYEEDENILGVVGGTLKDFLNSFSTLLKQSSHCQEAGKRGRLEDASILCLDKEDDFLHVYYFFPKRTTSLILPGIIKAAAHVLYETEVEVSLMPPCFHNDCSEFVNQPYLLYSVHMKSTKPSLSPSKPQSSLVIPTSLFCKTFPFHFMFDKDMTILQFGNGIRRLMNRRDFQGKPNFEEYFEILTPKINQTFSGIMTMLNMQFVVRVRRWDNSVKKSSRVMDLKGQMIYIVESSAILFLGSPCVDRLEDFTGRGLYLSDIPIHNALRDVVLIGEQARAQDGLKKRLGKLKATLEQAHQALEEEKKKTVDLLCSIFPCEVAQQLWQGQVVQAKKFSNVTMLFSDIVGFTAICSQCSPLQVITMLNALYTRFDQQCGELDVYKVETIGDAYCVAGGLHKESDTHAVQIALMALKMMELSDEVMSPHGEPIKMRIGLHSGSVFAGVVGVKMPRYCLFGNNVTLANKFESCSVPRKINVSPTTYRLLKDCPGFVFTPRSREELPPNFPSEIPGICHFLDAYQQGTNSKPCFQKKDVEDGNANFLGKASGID
T1 sequence (Q02153 1-619): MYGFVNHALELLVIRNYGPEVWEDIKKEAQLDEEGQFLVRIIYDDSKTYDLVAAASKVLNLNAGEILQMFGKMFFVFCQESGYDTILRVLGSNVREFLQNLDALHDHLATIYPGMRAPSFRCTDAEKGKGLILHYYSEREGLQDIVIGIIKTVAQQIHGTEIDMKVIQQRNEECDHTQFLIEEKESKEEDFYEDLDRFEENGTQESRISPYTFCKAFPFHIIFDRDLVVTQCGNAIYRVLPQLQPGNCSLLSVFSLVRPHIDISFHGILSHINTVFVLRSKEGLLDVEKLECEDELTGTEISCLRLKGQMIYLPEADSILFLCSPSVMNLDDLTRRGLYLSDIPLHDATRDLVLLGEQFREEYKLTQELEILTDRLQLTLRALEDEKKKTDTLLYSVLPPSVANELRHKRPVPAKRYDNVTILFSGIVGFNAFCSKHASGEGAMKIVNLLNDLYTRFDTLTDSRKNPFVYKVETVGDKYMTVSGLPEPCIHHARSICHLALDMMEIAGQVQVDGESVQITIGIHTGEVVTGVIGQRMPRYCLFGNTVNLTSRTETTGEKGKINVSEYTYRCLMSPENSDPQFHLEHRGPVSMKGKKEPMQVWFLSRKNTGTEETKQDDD
Experiment: cGMP content (RIA) in intact Sf9 cells coexpressing rhsGCα1 and rhsGCβ1
Type: cell-based
Experimental: For the production of functional heterodimeric human sGC, rhsGCα1 and rhsGCβ1 were coexpressed in Sf9 cells with recombinant baculoviruses. For this, Sf9 monolayer cultures [2.5×10^6 cells/dish, Ø 90 mm; supplements see example 2] were coinfected with a M.O.I. (multiplicity of infection) of 2 pfu/cell of each recombinant baculovirus (hsGCα1 and hsGCβ1; both without GST-tag) and cultivated for 48 hours at 27° C. The basal as well as the NO-stimulated activity of the sGC in the cells was determined by measurement of the cGMP content in the cells in the presence of the phosphodiesterase inhibitor IBMX (3-isobutyl-1-methylxanthine).
For the determination of the cGMP content, the culture media was replaced by Krebs-Ringer-buffer (KRB; […]; 4.74 mM KCI; 2.54 mM CaCl2; 1.19 mM MgSO4; 1.19 mM KH2PO4; 25 mM NaHCO3; 10 mM HEPES; pH 7.4; 0.1% BSA) which, in addition, contained 1 mM IBMX. The cells were incubated for one hour at 27° C. Then the cells were washed with ice-cold KRP and harvested in 1 ml ice-cold ethanol (80%) with a cell scraper. The cells were homogenized by sonication [see Example 3] and centrifuged at 20,000×g for 20 minutes. The supernatant was dried in a speed-vac and the residue resuspended in 25 mM TEA, pH 7.8. The cGMP content was determined by means of RIA (Biotrend).

| influence on basal cGMP levels (basal, without SNP) | effect on stimulation of rhsGC with SNP (simultaneous incubation with ODQ and SNP) | SMILES | increase of cGMP content (10 μM YC-1 for 2 minutes) [fold] | increase of cGMP content (100 μM YC-1, compared with 10 μM YC-1) | cGMP levels compared to stimulation with SNP alone (YC-1 simultaneously with 100 μM SNP) |
| --- | --- | --- | --- | --- | --- |
| did not have an influence | inhibited | O=c1onc2cnc3ccccc3n12 [ODQ, 1H-[1,2,4]oxadiazolo[4,3,-a]chinoxalin-1-on] |  |  |  |
|  |  | OCc1ccc(-c2nn(Cc3ccccc3)c3ccccc23)o1 [YC-1, 3-(5′-hydroxymethyl-2′-furyl)-1-benzylindazol] | 3.4 | the same effect | doubled |
